Columns and labels:
Experiment in all cases: Z-LYTE biochemical assay
Settings in all cases: 25 °C
[1] = target: Tyrosine-protein kinase ABL1 (Homo sapiens, UniProt P00519)
Experimental: (§1) The reaction was stopped by the addition of 5 µL stop reagent.

[2] = target: Vascular endothelial growth factor receptor 2 (Homo sapiens, UniProt P35968)
Experimental: as §1

[3] = target: Receptor protein-tyrosine kinase (Homo sapiens, UniProt Q504U8)
Experimental: as §1

Chain of Tyrosine-protein kinase ABL1 (P00519 whole entry): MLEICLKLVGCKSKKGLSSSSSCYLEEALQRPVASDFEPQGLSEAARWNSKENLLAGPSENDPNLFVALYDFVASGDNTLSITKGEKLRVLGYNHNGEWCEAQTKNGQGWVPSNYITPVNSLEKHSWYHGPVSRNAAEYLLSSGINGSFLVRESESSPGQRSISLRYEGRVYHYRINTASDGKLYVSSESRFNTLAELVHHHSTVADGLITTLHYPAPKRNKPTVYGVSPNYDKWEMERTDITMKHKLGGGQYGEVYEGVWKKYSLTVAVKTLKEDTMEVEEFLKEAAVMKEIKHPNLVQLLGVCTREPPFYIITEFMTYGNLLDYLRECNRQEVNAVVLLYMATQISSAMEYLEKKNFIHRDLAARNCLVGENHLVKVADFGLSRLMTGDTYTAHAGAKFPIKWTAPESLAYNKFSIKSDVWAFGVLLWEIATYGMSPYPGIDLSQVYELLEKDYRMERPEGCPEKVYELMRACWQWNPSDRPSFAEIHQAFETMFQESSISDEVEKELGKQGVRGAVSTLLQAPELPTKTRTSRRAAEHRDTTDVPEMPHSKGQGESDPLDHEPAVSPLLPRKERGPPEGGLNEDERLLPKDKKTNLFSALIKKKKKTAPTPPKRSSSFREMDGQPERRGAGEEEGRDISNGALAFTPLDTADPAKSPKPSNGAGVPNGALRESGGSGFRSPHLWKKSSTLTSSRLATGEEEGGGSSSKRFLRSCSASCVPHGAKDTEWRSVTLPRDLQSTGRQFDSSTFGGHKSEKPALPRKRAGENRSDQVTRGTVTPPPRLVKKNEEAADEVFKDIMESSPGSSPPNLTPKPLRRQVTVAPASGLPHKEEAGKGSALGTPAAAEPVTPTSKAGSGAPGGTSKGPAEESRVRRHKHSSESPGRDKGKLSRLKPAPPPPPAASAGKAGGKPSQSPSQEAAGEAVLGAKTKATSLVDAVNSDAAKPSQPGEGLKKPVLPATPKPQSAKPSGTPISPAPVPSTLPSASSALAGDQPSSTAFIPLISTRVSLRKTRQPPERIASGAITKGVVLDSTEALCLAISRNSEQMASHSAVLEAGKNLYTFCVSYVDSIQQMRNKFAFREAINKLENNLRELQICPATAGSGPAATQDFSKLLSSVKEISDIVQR
Chain of Vascular endothelial growth factor receptor 2 (P35968 whole entry): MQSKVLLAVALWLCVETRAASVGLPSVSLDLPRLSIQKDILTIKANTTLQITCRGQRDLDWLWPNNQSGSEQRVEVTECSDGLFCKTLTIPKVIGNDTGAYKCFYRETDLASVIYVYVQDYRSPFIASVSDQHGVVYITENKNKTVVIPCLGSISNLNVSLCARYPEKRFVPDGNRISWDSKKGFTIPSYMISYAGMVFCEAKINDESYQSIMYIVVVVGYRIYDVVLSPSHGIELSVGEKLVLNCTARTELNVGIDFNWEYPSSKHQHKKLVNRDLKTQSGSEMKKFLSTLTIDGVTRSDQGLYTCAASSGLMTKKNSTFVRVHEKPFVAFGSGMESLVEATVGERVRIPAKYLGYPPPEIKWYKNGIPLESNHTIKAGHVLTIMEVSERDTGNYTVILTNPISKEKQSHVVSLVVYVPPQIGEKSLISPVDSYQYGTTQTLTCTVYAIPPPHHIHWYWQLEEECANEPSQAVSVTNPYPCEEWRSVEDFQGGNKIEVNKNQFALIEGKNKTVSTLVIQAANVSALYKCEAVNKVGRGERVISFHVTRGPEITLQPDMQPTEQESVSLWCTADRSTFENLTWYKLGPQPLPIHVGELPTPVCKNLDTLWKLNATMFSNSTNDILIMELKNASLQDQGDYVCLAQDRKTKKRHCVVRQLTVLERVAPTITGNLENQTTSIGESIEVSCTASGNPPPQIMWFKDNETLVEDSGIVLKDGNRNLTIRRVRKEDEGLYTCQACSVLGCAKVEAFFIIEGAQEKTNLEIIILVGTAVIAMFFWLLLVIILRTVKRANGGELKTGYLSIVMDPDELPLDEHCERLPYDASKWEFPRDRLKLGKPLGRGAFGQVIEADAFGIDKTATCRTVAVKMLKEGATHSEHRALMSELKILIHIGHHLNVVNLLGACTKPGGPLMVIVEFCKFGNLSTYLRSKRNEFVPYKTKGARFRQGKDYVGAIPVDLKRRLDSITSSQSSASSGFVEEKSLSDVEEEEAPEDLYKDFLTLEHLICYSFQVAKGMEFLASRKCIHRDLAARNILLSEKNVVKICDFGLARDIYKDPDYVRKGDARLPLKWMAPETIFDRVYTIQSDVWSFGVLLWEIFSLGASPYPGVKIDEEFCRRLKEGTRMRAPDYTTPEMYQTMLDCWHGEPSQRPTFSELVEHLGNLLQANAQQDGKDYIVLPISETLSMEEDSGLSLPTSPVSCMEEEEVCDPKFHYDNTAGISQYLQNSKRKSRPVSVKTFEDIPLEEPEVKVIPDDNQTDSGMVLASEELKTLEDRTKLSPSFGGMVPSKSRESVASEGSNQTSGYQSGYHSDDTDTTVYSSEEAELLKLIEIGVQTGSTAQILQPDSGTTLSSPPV
Chain of Receptor protein-tyrosine kinase (Q504U8 whole entry): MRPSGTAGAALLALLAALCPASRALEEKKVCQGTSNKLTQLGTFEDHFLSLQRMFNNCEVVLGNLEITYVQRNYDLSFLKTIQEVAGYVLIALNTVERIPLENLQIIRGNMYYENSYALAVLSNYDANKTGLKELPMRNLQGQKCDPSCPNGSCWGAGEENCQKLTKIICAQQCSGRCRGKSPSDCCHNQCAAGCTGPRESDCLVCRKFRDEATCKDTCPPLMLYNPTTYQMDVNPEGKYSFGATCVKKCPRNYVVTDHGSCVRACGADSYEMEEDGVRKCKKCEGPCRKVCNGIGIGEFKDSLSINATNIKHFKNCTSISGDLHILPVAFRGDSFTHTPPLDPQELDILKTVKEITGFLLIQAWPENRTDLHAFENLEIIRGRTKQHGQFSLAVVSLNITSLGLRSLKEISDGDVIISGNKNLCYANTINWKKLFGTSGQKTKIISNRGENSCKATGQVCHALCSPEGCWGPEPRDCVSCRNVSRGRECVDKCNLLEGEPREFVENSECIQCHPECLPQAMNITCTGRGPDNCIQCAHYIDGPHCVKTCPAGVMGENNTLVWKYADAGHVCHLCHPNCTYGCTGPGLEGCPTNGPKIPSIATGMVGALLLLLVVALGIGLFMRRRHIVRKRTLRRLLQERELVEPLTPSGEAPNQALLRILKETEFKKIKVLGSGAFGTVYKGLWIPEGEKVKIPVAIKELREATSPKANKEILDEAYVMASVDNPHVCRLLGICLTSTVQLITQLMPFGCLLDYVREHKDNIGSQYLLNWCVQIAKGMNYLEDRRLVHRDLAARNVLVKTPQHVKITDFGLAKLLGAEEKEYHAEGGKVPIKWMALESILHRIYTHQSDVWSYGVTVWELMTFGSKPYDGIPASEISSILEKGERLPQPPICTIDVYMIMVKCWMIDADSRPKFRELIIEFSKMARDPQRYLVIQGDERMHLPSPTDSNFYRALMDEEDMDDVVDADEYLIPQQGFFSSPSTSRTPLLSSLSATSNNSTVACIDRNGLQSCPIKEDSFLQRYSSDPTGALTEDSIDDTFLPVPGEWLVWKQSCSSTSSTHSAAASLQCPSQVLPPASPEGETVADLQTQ

Row | SMILES | IC50 [1] | IC50 [2] | IC50 [3]
1 | Cc1c2ccc(Nc3ccnc(Nc4ccc(S(=O)(=O)NC(=N)N)cc4)n3)cc2nn1C [N-carbamimidoyl-4-((4-((2,3-dimethyl-2H-indazole-6-yl)amino)pyrimidin-2-yl)amino) benzenesulfonamide (P1g)] | 930 nM | 1340 nM | –
2 | Cc1ccnc(NS(=O)(=O)c2ccc(Nc3nccc(N(C)c4ccc5c(C)n(C)nc5c4)n3)cc2)n1 [4-((4-((2,3-dimethyl-2H-indazole-6-yl)(methyl)amino)pyrimidin-2-yl)amino)-N-(4-methylpyrimidin-2-yl)benzenesulfonamide (P2d)] | 62 nM | 25 nM | –
3 | Cc1c2ccc(N(C)c3ccnc(Nc4ccc(S(=O)(=O)NC(=N)N)cc4)n3)cc2nn1C [N-carbamimidoyl-4-((4-((2,3-dimethyl-2H-indazole-6-yl)(methyl)amino)pyrimidin-2-yl)amino) benzenesulfonamide (P2g)] | 360 nM | 720 nM | 1370 nM
4 | Cc1cc(NS(=O)(=O)c2ccc(Nc3nccc(Nc4ccc5c(C)n(C)nc5c4)n3)cc2)no1 [4-((4-((2,3-dimethyl-2H-indazole-6-yl)amino)pyrimidin-2-yl)amino)-N-(5-methylisoxazol-3-yl) benzenesulfonamide (P1f)] | 2180 nM | 1630 nM | –
5 | Cc1cc(C)nc(NS(=O)(=O)c2ccc(Nc3nccc(Nc4ccc5c(C)n(C)nc5c4)n3)cc2)n1 [4-((4-((2,3-dimethyl-2H-indazole-6-yl)amino)pyrimidin-2-yl)amino)-N-(4,6-dimethylpyrimidin-2-yl)benzenesulfonamide (P1e)] | 360 nM | 120 nM | –
6 | Cc1c2ccc(Nc3ccnc(Nc4ccc(S(=O)(=O)Nc5ncccn5)cc4)n3)cc2nn1C [4-((4-((2,3-dimethyl-2H-indazole-6-yl)amino)pyrimidin-2-yl)amino)-N-(pyrimidin-2-yl) benzenesulfonamide (P1c)] | 460 nM | 34 nM | –
7 | Cc1c2ccc(N(C)c3ccnc(Nc4ccc(S(=O)(=O)Nc5ncccn5)cc4)n3)cc2nn1C [4-((4-((2,3-dimethyl-2H-indazole-6-yl)(methyl)amino)pyrimidin-2-yl)amino)-N-(pyrimidin-2-yl) benzenesulfonamide (P2c)] | 120 nM | 29 nM | –
8 | Cc1cc(C)nc(NS(=O)(=O)c2ccc(Nc3nccc(N(C)c4ccc5c(C)n(C)nc5c4)n3)cc2)n1 [4-((4-((2,3-dimethyl-2H-indazole-6-yl)(methyl)amino)pyrimidin-2-yl)amino)-N-(4,6-dimethylpyrimidin-2-yl)benzenesulfonamide (P2e)] | 22 nM | 12 nM | –
9 | Cc1ccnc(NS(=O)(=O)c2ccc(Nc3nccc(Nc4ccc5c(C)n(C)nc5c4)n3)cc2)n1 [4-((4-((2,3-dimethyl-2H-indazole-6-yl)amino)pyrimidin-2-yl)amino)-N-(4-methylpyrimidin-2-yl) benzenesulfonamide (P1d)] | 280 nM | 160 nM | –
10 | Cc1cc(NS(=O)(=O)c2ccc(Nc3nccc(N(C)c4ccc5c(C)n(C)nc5c4)n3)cc2)no1 [4-((4-((2,3-dimethyl-2H-indazole-6-yl)(methyl)amino)pyrimidin-2-yl)amino)-N-(5-methylisoxazol-3-yl)benzenesulfonamide (P2f)] | 320 nM | 650 nM | –

From BindingDB's records for doi:10.1111/cbdd.12243 (Shandong Institute of Pharmaceutical Industry, 2014)
